Results reported in patent US12036228B2, “Treatment of seizure disorders” (Shackelford Pharma Inc., priority 2022, dated 2024).

Experiments:
Format in all cases: in vivo
[1] = test system: GTC seizures in human patient; test: Example 7 human patient, intractable GTC seizures; details: 10 mg THC with 10 mg CBD orally daily at bedtime, with Trileptal and clonazepam
Source text: A patient was first diagnosed with intractable GTC seizures without status epilepticus in 2001.
The patient first presented for cannabinoid treatment on May 24, 2013. They were then a PhD student in economics. The patient's medical history is significant for having a car accident with a concussion and “scarring”. They developed GTC seizures occurring 3 times per month. […] In 2008, they started using recreational cannabis occasionally, but not regularly.

[2] = test system: seizures in human patient; test: Example 8 pediatric patient with Lennox-Gastaut; details: THC 8 mg BID (16 mg TDD) orally in combination with Epidiolex (CBD) 150 mg BID
Protocol: The other pediatric patient was a patient, diagnosed with Lennox-Gastout in 2008, suffered from multiple seizure types and went through corpus callosotomy in January 2017 after failure of vagus nerve stimulation (VNS). […] The patient was first evaluated for cannabinoid treatment on Aug. 3, 2017, and was prescribed CBD with 0.3% THC 10 mg BID (Charlotte's Web). […] After discharge from the hospital, the patient's GTCs worsened and were no longer responsive to felbamate. […] This patient was 35.45 kg, so the CBD daily dose was 3.3 mg/kg (well below the therapeutic dosages for Epidiolex). However patient was still having frequent tonic, myoclonic, and GTC seizures per day. […] When the dose was 300 mg Epidiolex daily, the patient was 40.5 kg, so the CBD daily dose was 7.4 mg/kg (below the therapeutic dosages for Epidiolex for Lennox Gastaut Syndrome).

[3] = test system: seizures / EEG abnormalities in human patient; test: Example 8 pediatric patient with atonic seizures, myoclonic seizures and Doose syndrome (24 hour EEG, seizures)
Protocol: They had continued to experience several seizures per day of all types despite multiple combination regimens of prescription anti-seizure medications and a trial of THC-A transdermal patch and CBD (Charlotte's Web) oral tincture and CBD transdermal patches up until the day they were first evaluated for cannabinoid treatment (age 4.5 on Mar. 8, 2016). […] They were then prescribed 1 mg oral THC tincture three times per day. On Mar. 8, 2018, the patient returned for follow-up where it was learned that all cannabinoids had been discontinued. […] The THC-A transdermal patch was restarted at 1.875 mg/day with a reduction in EEG abnormalities to 400/24 hours. Oral THC 2.5 mg BID was then restarted with a further reduction in EEG abnormalities to 20/24 hours. […] Due to the significant reduction in brain pre-seizure activity after restarting THC and concerns that there are effective dosage variations among transdermal products, the patient was then prescribed oral THC 2.5 mg BID which they continue to take.

[4] = test system: seizures in human patient; test: Example 3 human patient, GTC and complex partial seizures
Source text: A patient first started having GTC and complex partial (CP) seizures. […] The patient was referred for evaluation for initiation of cannabinoid/THC treatment in March 2014.

[5] = test system: GTC seizures in human patient; test: Example 4 human patient, idiopathic GTC seizures
Source text: A person's first evaluation for cannabinboid therapy was on Feb. 16, 2010. […] Initially in 2010, the patient was smoking cannabis in the day and taking a THC cannabis extract at night orally.

[6] = test system: GTC seizures in human patient; test: Example 5 human patient, GTC seizures caused by cerebral angioma
Source text: A patient first started having GTC seizures in 2007 which were caused by a cerebral angioma. […] The freedom from seizures allowed them to stop taking Lamictal, and the resolution of the medication side effects allowed them to return to work.

[7] = smoking cannabis during the day and 12.5 mg of THC orally at bedtime

For `CCCCCc1cc(O)c2c(c1)OC(C)(C)[C@@H]1CCC(C)=C[C@@H]21` [THC, Delta-9-tetrahydrocannabinol], the seizures [1] was “no seizures since restarting cannabinoids”, the effect on seizures [2] was “further reduction in seizure frequency and duration” and the EEG abnormalities ([3]; Oral THC 2.5 mg BID restarted after THC-A patch) was 20 /24 hours. For the same compound, the observable seizures ([3]; Oral THC 2.5 mg BID with THC-A patch) was “no observable seizures”, the seizure status ([4]; 20 milligrams THC cannabis extract liquid orally in the morning and 5 mg THC content pill in the evening) was “remained seizure free” and the seizure status ([4]; inhaled 16 mg cannabis wax in the morning and oral 20 milligrams THC cannabis extract liquid at night) was “seizure free”. For the same compound, the “seizures after resuming regimen” value ([5]; cannabis smoking during the day and THC cannabis extract orally at night) was “the seizures stopped”, the seizure control ([5]; inhaled and orally administered THC cannabis products, no anti-epileptic drugs) was “well controlled” and the seizure status [5, 7] was “had no seizures”. For the same compound, the seizure-free period [5, 7] was 4 years, the seizure status ([6]; only orally administered THC-infused confections and drinks) was “still seizure-free” and the seizure status ([6]; orally administered THC reduced from 150 milligrams to 70 mg at bedtime) was “continued seizure freedom”.
